In US7235588B2, “Method for reducing hypertension and heart failure” (The Research Foundation of State University of New York, priority 2001, dated 2007):

Assays:
[1] = test system: hearts subjected to ischemia/reperfusion; settings: cited from earlier work
[2] = test system: St-domain/STAT binding activity; assay: Electrophoretic gel mobility-shift assay of St-domain/STAT binding in heart nuclear extracts; design: species or system rat; settings: hearts, 30 min ischemia/120 min reperfusion
Description: Nuclear extracts were examined in hearts subjected to global ischemia to determine whether there is enhanced STAT binding activity to the St domain of the angiotensinogen promoter. The nuclear heart extracts were examined by the electrophoretic gel mobility-shift assay that exployed the use of the chemically synthesized oligonucleotide sequence of the St domain. The St-domain DNA probe for protein binding was a double-stranded oligonucleotide containing the sequence 5′-GGGTtcCTGGAAGGG-3′ SEQ. ID NO: 2, and complementary strand 5′-CCCTTCCAGgaACCC-3′ SEQ. ID NO: 3, respectively. These probes were end-labeled by polynucleotide kinase and [γ-^32P]ATP. Binding reaction mixture containing 0.5 ng of labeled DNA (1,000 cpm), 2 μg of poly(dI-C), and 1-12 μg of protein in buffer containing 20 mM Hepes, 3% glycerol, 1.5 mM MgCl2, 1 mM DTT, 2 mM EDTA and 50 mM KCl, pH 7.5 was allowed to incubate at 4° C. for 30 min. The reactions were analyzed by electrophoresis on 8% polyacrylanide gel in 0.375× TBE ([…] Tris borate, pH 8.7 and 1.0 mM EDTA). After electrophoresis, the gels were dried and subjected to autoradiography. […] (FIG. 5B). The activation of STATs and the consequent binding to the St-domain in the angiotensinogen promoter accounts for the increase in transcription of angiotensinogen mRNA. […]

angiotensinogen mRNA = assay: Angiotensinogen mRNA in hearts subjected to ischemia/reperfusion (primer extension assay); design: species or system rat; settings: 30 min ischemia and 120 min reperfusion
Experimental: Ischemia was induced by a modified Langendorf-reperfusion method in rat hearts. Hearts from adult male rats were randomly divided into 4 groups and subjected to ischemia/reperfusion. In the ischemic group, hearts were perfused with Krebs-Henseleit buffer for 60 minutes, followed by 30 minutes of global ischemia. In the ischemic/reperfused group, hearts were perfused for 60 minutes, followed by 30 minutes of global ischemia and 120 minutes of reperfusion. Control group hearts were perfused for the same lengths of time.
Rat hearts subjected to ischemia/reperfusion were tested to determine whether activation of the renin-angiotensin system, as reflected by an increase in angiotensinogen mRNA, occurs in ischemic injury. The level of angiotensinogen mRNA was analyzed by primer extension assay using gene-specific DNA probes. A DNA primer spanning the complementary sequence of the rat angiotensinogen cDNA between nucleotides 302 and 279 (5′-[…]-3′) SEQ ID NO: 1 was end-labeled and used to evaluate the expression of angiotensinogen mRNA in total RNA isolated from the rat heart. The primer extension protocol was performed according to instructions provided by the supplier (Progema). Rat GAPDH cDNA specific primer was used as control. There was a marked increase in mRNA level after 30 minutes of ischemia and 120 minutes of reperfusion (FIG. 5A). […]

Row | Compound | cardioprotection / myocardial damage due to ischemia [1] | St-domain/STAT binding activity (STAT/DNA complex formation) [2] | angiotensinogen mRNA level (angiotensinogen mRNA)
1 | N#C/C(=C\c1ccc(O)c(O)c1)C(=O)NCCCCc1ccccc1 [Tyrphostin AG556] | reduces myocardial damage due to ischemia | – | –
2 | CCCCc1nc(Cl)c(CO)n1Cc1ccc(-c2ccccc2-c2nn[nH]n2)cc1 [losartan] | – | almost entirely abolished | reduced it almost entirely to the level of the control sample
